Data taken from patent EP1733731A1, “New uses of Glycerol derivatives in particular in cosmetics” (AGRO INDUSTRIE RECHERCHES ET DEVELOPPEMENTS (A.R.D.), priority 2005, dated 2006).

Tested on: proMMP-1
Test: activation of proMMP-1 by plasmin in cultured dermal fibroblasts (western blot)
Type: cell-based
Conditions: 25 µg/mL; 2,5 µg/mL plasmin; Figure 1C-4
Description: • La Figure 1 représente la modulation de l'activation des proMMP-3 (Figures 1A et 1B) et proMMP-1 (Figure 1C) in vitro comme en culture par des extraits glycolipidiques du gluten de blé. • Figure 1A : 100 nM de proMMP-3 (Figure 1A-1) sont incubés avec 65 nM de plasmine en absence (Figure 1A-2) ou en présence de glycolipides (Figure 1A-3 et 4), à la concentration de 50µg/mL pour M1-Sucres (Figure 1A-3) et 25 µg/mL pour ED 23-11 (Figure 1A-4). • Figure 1B : des fibroblastes dermiques sont ensemencés en plaque 24 puits à raison de […] cellules par puits jusque confluence. Après une mise au repos de 18 heures, les cellules sont incubées en présence (Figure 1B-2, 3 et 4) ou non (Figure 1B-1) de 2,5 µg/mL de plasmine ainsi que des glycolipides M1(-Sucres) (Figure 1B-3) et ED 23-11 (Figure 1B-4) aux mêmes concentrations que précédemment. • Figure 1C : des fibroblastes dermiques sont ensemencés en plaque 24 puits à raison de […] cellules par puits jusque confluence. Après une mise au repos de 18 heures, les cellules sont incubées en présence (Figure 1C-2, 3 et 4) ou non (Figure 1C-1) de 2,5 µg/mL de plasmine ainsi que des glycolipides M1(-Sucres) (Figure 1C-3) et ED 23-11 (Figure 1C-4) aux mêmes concentrations que précédemment. Dans l'ensemble des figures 1A, 1B et 1C, la réaction est arrêtée aux temps indiqués par addition de 0,3 mg/ml d'aprotinine. […]

SMILES: CCCCC/C=C\C/C=C\CCCCCCCCOC[C@H](CO[C@@H]1O[C@H](COC(=O)CCCCCCCCCCCCCCC)[C@H](O)[C@H](O)[C@H]1O)OCCCCCCCC/C=C\C/C=C\CCCCC [ED23-11, 1,2-di-O-linoléyl-3-O-[6'-O-palmitoyl-β-D-galactopyranosyl]-sn-glycérol]
- activation de la proMMP-1: inhibition significative
